In patent US20240217983A1, “GPR119 AGONISTS” (Kallyope, Inc., priority 2021, published 2024):
Structures can show the parent of a compound that is named as a salt.

Target: T1, human GPR119 (hGPR119) (Homo sapiens, UniProt Q8TDV5)
T1 construct: expressed in transfected cells
T1 sequence (Q8TDV5 1-335): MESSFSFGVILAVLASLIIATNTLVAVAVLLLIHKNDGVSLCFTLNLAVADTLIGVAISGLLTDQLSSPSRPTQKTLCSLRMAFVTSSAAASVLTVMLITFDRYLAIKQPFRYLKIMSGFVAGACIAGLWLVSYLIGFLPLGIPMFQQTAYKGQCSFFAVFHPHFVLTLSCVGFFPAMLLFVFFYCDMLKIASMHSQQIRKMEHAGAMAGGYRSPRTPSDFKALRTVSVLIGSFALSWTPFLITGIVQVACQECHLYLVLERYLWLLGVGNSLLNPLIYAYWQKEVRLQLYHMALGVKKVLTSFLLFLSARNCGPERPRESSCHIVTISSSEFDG
Test: cAMP accumulation assay (Cisbio cAMP Gs dynamic HTRF kit) in CHO-K1 cells stably expressing human GPR119
Type: cell-based
Settings: 4-parameter fit; for Emax: 1 h, % activity normalized to Max and Min controls; for EC50: 60 minutes at 37° C.
Procedure: CHO-K1 cells stably expressing human GPR119 (hGPR119) were prepared by transfection of a GPR119-carrying plasmid using Lipofectamine 2000 (following manufacturer instructions). A stable cell line was established using the limiting dilution method with geneticine selection. Assay-ready frozen (ARF) cells were prepared and used throughout the study.
The assay was performed in a 384-well plate format using the cAMP Gs dynamic assay kit from Cisbio. ARF cells expressing hGPR119 were thawed, washed and then resuspended in cAMP stimulation buffer at a cell density of 1.1×10^6 cells/mL. Cells were plated at a density of ˜10,000 cells/well (9 μL/well). Dose response curves for the tested compounds were prepared in a cAMP stimulation buffer, containing 0.1% Tween 80 at 4 fold the final concentration. The compounds were then transferred to the cell plates using BRAVO (3 μL/well) and the plates were incubated for 60 minutes at 37° C./5% CO2. Detection buffer (10 μL, prepared as described in the cAMP Gs dynamic kit) were added to each well, and the plates were incubated at ambient temperature for 1 hr.
RT-FRET was measured using a ClarioSTAR plate reader, calculating the ratio between emissions at 665 nm and 620 nm (HTRF ratio). The HTRF ratio for positive (Max) and negative (Min) controls were used to normalize HTRF data and generate values for % activity. EC50 and Max activity values were determined using a standard 4-parameter fit.

Structure (SMILES) | Emax | EC50
O=C(Cc1ccc(OCCCC2CCN(c3ncc(Cl)cn3)CC2)cc1F)N1CCC2(CCN(C[C@H](O)[C@@H](O)[C@H](O)[C@H](O)CO)C2)C1 (stereo partly drawn) [Example 43, 2-(4-(3-(1-(5-chloropyrimidin-2-yl)piperidin-4-yl)propoxy)-2-fluorophenyl)-1-(7-((2S,3R,4R,5R)-2,3,4,5,6-pentahydroxyhexyl)-2,7-diazaspiro[4.4]nonan-2-yl)ethan-1-one] | 100 to 130% | ≤ 0.1 µM
O=C(Cc1ccc(OCCCC2CCN(c3ncc(Cl)cn3)CC2)cc1F)N1CCC2(CCN(C[C@H](O)[C@H](O)[C@H](O)CO)C2)C1 (stereo partly drawn) [Example 42, 2-(4-(3-(1-(5-chloropyrimidin-2-yl)piperidin-4-yl)propoxy)-2-fluorophenyl)-1-(7-((2S,3S,4R)-2,3,4,5-tetrahydroxypentyl)-2,7-diazaspiro[4.4]nonan-2-yl)ethan-1-one] | 100 to 130% | ≤ 0.1 µM
O=C(Cc1ccc(OCCCCC2CC3(CCN(c4ncc(Cl)cn4)CC3)C2)cc1F)N1CCN(C[C@H](O)[C@@H](O)[C@H](O)[C@H](O)CO)CC1 [Example 112, 2-(4-(4-(7-(5-chloropyrimidin-2-yl)-7-azaspiro[3.5]nonan-2-yl)butoxy)-2-fluorophenyl)-1-(4-((2S,3R,4R,5R)-2,3,4,5,6-pentahydroxyhexyl)piperazin-1-yl)ethan-1-one] | 100 to 130% | 0.1 to 1 µM
O=C(CCCCS(=O)(=O)O)N1CC2(CCN2C(=O)Cc2ccc(OCCCC3CCN(c4ncc(Cl)cn4)CC3)cc2F)C1 [Example 9, 5-(1-(2-(4-(3-(1-(5-chloropyrimidin-2-yl)piperidin-4-yl)propoxy)-2-fluorophenyl)acetyl)-1,6-diazaspiro[3.3]heptan-6-yl)-5-oxopentane-1-sulfonic acid] | 100 to 130% | > 10 µM
O=C(Cc1ccc(OCCCC2CCN(c3ncc(Cl)cn3)CC2)cc1F)N1CCC2(CN(C[C@H](O)[C@H](O)[C@H](O)CO)CCO2)C1 (stereo partly drawn) [Example 72, 2-(4-(3-(1-(5-chloropyrimidin-2-yl)piperidin-4-yl)propoxy)-2-fluorophenyl)-1-(9-((2S,3S,4R)-2,3,4,5-tetrahydroxypentyl)-6-oxa-2,9-diazaspiro[4.5]decan-2-yl)ethan-1-one] | 100 to 130% | ≤ 0.1 µM
O=C(Cc1ccc(OCCCC2CCN(c3ncc(Cl)cn3)CC2)cc1F)N1CC2(CN(C[C@H](O)[C@H](O)[C@H](O)CO)C2)C1 [Example 25, 2-(4-(3-(1-(5-chloropyrimidin-2-yl)piperidin-4-yl)propoxy)-2-fluorophenyl)-1-(6-((2S,3S,4R)-2,3,4,5-tetrahydroxypentyl)-2,6-diazaspiro[3.3]heptan-2-yl)ethan-1-one formate] | 50 to 100% | > 10 µM
O=C(Cc1ccc(OCCCC2CCN(c3ncc(Cl)cn3)CC2)cc1F)N1CC2CCC1CN2C[C@H](O)[C@H](O)[C@H](O)CO (stereo partly drawn) [Example 52, 2-(4-(3-(1-(5-chloropyrimidin-2-yl)piperidin-4-yl)propoxy)-2-fluorophenyl)-1-(5-((2S,3S,4R)-2,3,4,5-tetrahydroxypentyl)-2,5-diazabicyclo[2.2.2]octan-2-yl)ethan-1-one] | ≥ 130% | ≤ 0.1 µM
O=C(Cc1ccc(OCCCC2CCN(c3ncc(Cl)cn3)CC2)cc1F)N1C[C@H]2CN(C[C@H](O)[C@@H](O)[C@H](O)[C@H](O)CO)C[C@H]2C1 [Example 45, 2-(4-(3-(1-(5-chloropyrimidin-2-yl)piperidin-4-yl)propoxy)-2-fluorophenyl)-1-((3aR,6aS)-5-((2S,3R,4R,5R)-2,3,4,5,6-pentahydroxyhexyl)hexahydropyrrolo[3,4-c]pyrrol-2(1H)-yl)ethan-1-one] | 100 to 130% | ≤ 0.1 µM
O=C(Cc1ccc(OCCCC2CCN(c3ncc(Cl)cn3)CC2)cc1F)N1CCC2(CC1)CN(C(=O)CCCCS(=O)(=O)O)C2 [Example 22, 5-(7-(2-(4-(3-(1-(5-chloropyrimidin-2-yl)piperidin-4-yl)propoxy)-2-fluorophenyl)acetyl)-2,7-diazaspiro[3.5]nonan-2-yl)-5-oxopentane-1-sulfonic acid] | 100 to 130% | 0.1 to 1 µM
O=C(Cc1ccc(OCCCC2CCN(c3ncc(Cl)cn3)CC2)cc1F)N1CC2(CCCN2C[C@H](O)[C@H](O)[C@H](O)CO)C1 [Example 60, 2-(4-(3-(1-(5-chloropyrimidin-2-yl)piperidin-4-yl)propoxy)-2-fluorophenyl)-1-(5-((2S,3S,4R)-2,3,4,5-tetrahydroxypentyl)-2,5-diazaspiro[3.4]octan-2-yl)ethan-1-one] | ≥ 130% | ≤ 0.1 µM
O=C(Cc1ccc(OCCCC2CCN(c3ncc(Cl)cn3)CC2)cc1F)N1CC2CC(C1)N2C[C@H](O)[C@H](O)[C@H](O)CO [Example 48, 2-(4-(3-(1-(5-chloropyrimidin-2-yl)piperidin-4-yl)propoxy)-2-fluorophenyl)-1-(6-((2S,3S,4R)-2,3,4,5-tetrahydroxypentyl)-3,6-diazabicyclo[3.1.1]heptan-3-yl)ethan-1-one] | ≥ 130% | ≤ 0.1 µM
O=C(Cc1ccc(OCCCC2CCN(c3ncc(Cl)cn3)CC2)cc1F)N1CCN(C[C@H](O)[C@@H](O)[C@H](O)[C@H](O)CO)C2CC21 (stereo partly drawn) [Example 59, 2-(4-(3-(1-(5-chloropyrimidin-2-yl)piperidin-4-yl)propoxy)-2-fluorophenyl)-1-(5-((2S,3R,4R,5R)-2,3,4,5,6-pentahydroxyhexyl)-2,5-diazabicyclo[4.1.0]heptan-2-yl)ethan-1-one] | 100 to 130% | ≤ 0.1 µM

Next, values leading:

Emax | EC50 | Structure (SMILES)
100 to 130% | > 10 µM | O=C(Cc1ccc(OCCCC2CCN(c3ncc(Cl)cn3)CC2)cn1)N1CCN(C[C@H](O)[C@@H](O)[C@H](O)[C@H](O)CO)CC1 [Example 88, 2-(5-(3-(1-(5-chloropyrimidin-2-yl)piperidin-4-yl)propoxy)pyridin-2-yl)-1-(4-((2S,3R,4R,5R)-2,3,4,5,6-pentahydroxyhexyl)piperazin-1-yl)ethan-1-one]
100 to 130% | ≤ 0.1 µM | O=C(Cc1ccc(OCCCC2CCN(c3ncc(Cl)cn3)CC2)cc1F)N1CCOC2(CCN(C[C@H](O)[C@H](O)[C@H](O)CO)C2)C1 (stereo partly drawn) [Example 80, 2-(4-(3-(1-(5-chloropyrimidin-2-yl)piperidin-4-yl)propoxy)-2-fluorophenyl)-1-(2-((2S,3S,4R)-2,3,4,5-tetrahydroxypentyl)-6-oxa-2,9-diazaspiro[4.5]decan-9-yl)ethan-1-one]
100 to 130% | 0.1 to 1 µM | O=C(Cc1ccc(OCCC2CC23CCN(c2ncc(Cl)cn2)CC3)cc1F)N1CCN(C[C@H](O)[C@@H](O)[C@H](O)[C@H](O)CO)CC1 (stereo partly drawn) [Example 108, 2-(4-(2-(6-(5-chloropyrimidin-2-yl)-6-azaspiro[2.5]octan-1-yl)ethoxy)-2-fluorophenyl)-1-(4-((2S,3R,4R,5R)-2,3,4,5,6-pentahydroxyhexyl)piperazin-1-yl)ethan-1-one]
≥ 130% | ≤ 0.1 µM | O=C(Cc1ccc(OCCCC2CCN(c3ncc(Cl)cn3)CC2)cc1F)N1CCC2(CCCC2NC[C@H](O)[C@@H](O)[C@H](O)[C@H](O)CO)C1 (stereo in doubt) [Example 77, 2-(4-(3-(1-(5-chloropyrimidin-2-yl)piperidin-4-yl)propoxy)-2-fluorophenyl)-1-(6-(((2S,3R,4R,5R)-2,3,4,5,6-pentahydroxyhexyl)amino)-2-azaspiro[4.4]nonan-2-yl)ethan-1-one]
100 to 130% | ≤ 0.1 µM | O=C(Cc1ccc(OCCCC2CCN(c3ncc(Cl)cn3)CC2)cc1F)N1CCC2(CN(C[C@H](O)[C@@H](O)[C@H](O)[C@H](O)CO)CCO2)C1 (stereo partly drawn) [Example 73, 2-(4-(3-(1-(5-chloropyrimidin-2-yl)piperidin-4-yl)propoxy)-2-fluorophenyl)-1-(9-((2S,3R,4R,5R)-2,3,4,5,6-pentahydroxyhexyl)-6-oxa-2,9-diazaspiro[4.5]decan-2-yl)ethan-1-one]
100 to 130% | ≤ 0.1 µM | O=C(Cc1ccc(OCCCC2CC3(CCN(c4ncc(Cl)cn4)CC3)C2)cc1F)N1CCN(C[C@H](O)[C@@H](O)[C@H](O)[C@H](O)CO)CC1 [Example 111, 2-(4-(3-(7-(5-chloropyrimidin-2-yl)-7-azaspiro[3.5]nonan-2-yl)propoxy)-2-fluorophenyl)-1-(4-((2S,3R,4R,5R)-2,3,4,5,6-pentahydroxyhexyl)piperazin-1-yl)ethan-1-one]
100 to 130% | ≤ 0.1 µM | O=C(Cc1ccc(OCC2CC(C3CCN(c4ncc(Cl)cn4)CC3)C2)cc1F)N1CCN(C[C@H](O)[C@@H](O)[C@H](O)[C@H](O)CO)CC1 (stereo partly drawn) [Example 114, 2-(4-((3-(1-(5-chloropyrimidin-2-yl)piperidin-4-yl)cyclobutyl)methoxy)-2-fluorophenyl)-1-(4-((2S,3R,4R,5R)-2,3,4,5,6-pentahydroxyhexyl)piperazin-1-yl)ethan-1-one]
